Measurements taken from ChEMBL document CHEMBL5113423, “Discovery and preclinical profile of sudapyridine (WX-081), a novel anti-tuberculosis agent” (Bioorg Med Chem Lett, 2022).
In brackets after ≈: the same amount, converted by molar mass.

Test system: Mycobacterium tuberculosis variant bovis
Experiment: Antimycobacterial activity against Mycobacterium bovis ATCC35737 assessed as mycobacterial growth inhibition
Format: functional

Work on COc1ncc(-c2ccccc2)cc1[C@@H](c1ccccc1)[C@@](O)(CCN(C)C)c1cccc2ccccc12 yielded an MIC of 0.5 µg/mL (≈ 0.995 µM).
